Measured values: PubChem BioAssay (NCI)
Where a name gives a salt, the structure may show the parent alone.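 Protocol summary: plate cells (96-well), add compound at 5 concentrations, incubate 48 h, interpolate endpoints linearly. The concentration for full growth arrest is given as TGI.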 Where a SMILES comes first, the peptide text is derived from it. The star is where a group is joined. Tfa = O=C(C(F)(F)F)*

Columns and labels:
Experiment in all cases: growth of human tumour cells (NCI), 48 h
U251 CNS = test system: U251 CNS
DU-145 prostate = test system: DU-145 prostate
A549 NSCLC = test system: A549 NSCLC
TK-10 renal = test system: TK-10 renal
MOLT-4 leukemia = test system: MOLT-4 leukemia
OVCAR-8 ovarian = test system: OVCAR-8 ovarian
SW-620 colon = test system: SW-620 colon
HS 578T breast = test system: HS 578T breast
UACC-257 melanoma = test system: UACC-257 melanoma
OVCAR-5 ovarian = test system: OVCAR-5 ovarian
BT-549 breast = test system: BT-549 breast
HT29 colon = test system: HT29 colon
NCI-H460 lung = test system: NCI-H460 lung
CAKI-1 renal = test system: CAKI-1 renal
SK-OV-3 ovarian = test system: SK-OV-3 ovarian
ACHN renal = test system: ACHN renal
KM12 colon = test system: KM12 colon
NCI-H226 lung = test system: NCI-H226 lung
HCT-15 colon = test system: HCT-15 colon
SK-MEL-2 melanoma = test system: SK-MEL-2 melanoma
HCC-2998 colon = test system: HCC-2998 colon
SK-MEL-28 melanoma = test system: SK-MEL-28 melanoma
HOP-62 NSCLC = test system: HOP-62 NSCLC
RPMI-8226 leukemia = test system: RPMI-8226 leukemia
NCI/ADR-RES ovarian = test system: NCI/ADR-RES ovarian
SF-539 CNS = test system: SF-539 CNS
OVCAR-3 ovarian = test system: OVCAR-3 ovarian
MDA-N = test system: MDA-N
MCF7 breast = test system: MCF7 breast
UO-31 renal = test system: UO-31 renal
NCI-H23 lung = test system: NCI-H23 lung
UACC-62 melanoma = test system: UACC-62 melanoma
COLO 205 colon = test system: COLO 205 colon
PC-3 prostate = test system: PC-3 prostate
MDA-MB-231 breast = test system: MDA-MB-231 breast
SNB-75 CNS = test system: SNB-75 CNS
786-0 renal = test system: 786-0 renal
SF-295 CNS = test system: SF-295 CNS
NCI-H522 lung = test system: NCI-H522 lung
IGROV1 ovarian = test system: IGROV1 ovarian
M14 melanoma = test system: M14 melanoma
SR leukemia = test system: SR leukemia
K-562 leukemia = test system: K-562 leukemia
SK-MEL-5 melanoma = test system: SK-MEL-5 melanoma
MALME-3M melanoma = test system: MALME-3M melanoma
EKVX NSCLC = test system: EKVX NSCLC
SN12C renal = test system: SN12C renal
SNB-19 CNS = test system: SNB-19 CNS
HOP-92 NSCLC = test system: HOP-92 NSCLC
SF-268 CNS = test system: SF-268 CNS
T-47D breast = test system: T-47D breast
MDA-MB-435 = test system: MDA-MB-435
RXF 393 renal = test system: RXF 393 renal
HL-60(TB) leukemia = test system: HL-60(TB) leukemia
CCRF-CEM leukemia = test system: CCRF-CEM leukemia
HCT-116 colon = test system: HCT-116 colon
LOX IMVI melanoma = test system: LOX IMVI melanoma
A498 renal = test system: A498 renal
OVCAR-4 ovarian = test system: OVCAR-4 ovarian

O=C(O)CC(NC(=O)C(F)(F)F)C(=O)NC(Cc1ccc(O)cc1)C(=O)O (stereo not drawn) (Tfa-Asp-Tyr-OH; configuration not given here)
TGI (U251 CNS): > 50 µM
TGI (DU-145 prostate): > 50 µM
TGI (A549 NSCLC): > 50 µM
TGI (TK-10 renal): > 50 µM
TGI (MOLT-4 leukemia): > 50 µM
TGI (OVCAR-8 ovarian): > 50 µM
TGI (SW-620 colon): > 50 µM
TGI (HS 578T breast): > 50 µM
TGI (UACC-257 melanoma): > 50 µM
TGI (OVCAR-5 ovarian): > 50 µM
TGI (BT-549 breast): > 50 µM
TGI (HT29 colon): > 50 µM
TGI (NCI-H460 lung): > 50 µM
TGI (CAKI-1 renal): > 50 µM
TGI (SK-OV-3 ovarian): > 50 µM
TGI (ACHN renal): > 50 µM
TGI (KM12 colon): > 50 µM
TGI (NCI-H226 lung): > 50 µM
TGI (HCT-15 colon): > 50 µM
TGI (SK-MEL-2 melanoma): > 50 µM
TGI (HCC-2998 colon): > 50 µM
TGI (SK-MEL-28 melanoma): > 50 µM
TGI (HOP-62 NSCLC): > 50 µM
TGI (RPMI-8226 leukemia): > 50 µM
TGI (NCI/ADR-RES ovarian): > 50 µM
TGI (SF-539 CNS): > 50 µM
TGI (OVCAR-3 ovarian): > 50 µM
TGI (MDA-N): > 50 µM
TGI (MCF7 breast): > 50 µM
TGI (UO-31 renal): > 50 µM
TGI (NCI-H23 lung): > 50 µM
TGI (UACC-62 melanoma): > 50 µM
TGI (COLO 205 colon): > 50 µM
TGI (PC-3 prostate): > 50 µM
TGI (MDA-MB-231 breast): > 50 µM
TGI (SNB-75 CNS): > 50 µM
TGI (786-0 renal): > 50 µM
TGI (SF-295 CNS): > 50 µM
TGI (NCI-H522 lung): > 50 µM
TGI (IGROV1 ovarian): > 50 µM
TGI (M14 melanoma): > 50 µM
TGI (SR leukemia): > 50 µM
TGI (K-562 leukemia): > 50 µM
TGI (SK-MEL-5 melanoma): > 50 µM
TGI (MALME-3M melanoma): > 50 µM
TGI (EKVX NSCLC): > 50 µM
TGI (SN12C renal): > 50 µM
TGI (SNB-19 CNS): > 50 µM
TGI (HOP-92 NSCLC): > 50 µM
TGI (SF-268 CNS): > 50 µM
TGI (T-47D breast): > 50 µM
TGI (MDA-MB-435): > 50 µM
TGI (RXF 393 renal): > 50 µM

O=C(Nn1c(-c2ccccc2)nc2ccccc2c1=O)c1ccc(CS)cc1
TGI (U251 CNS): > 100 µM
TGI (DU-145 prostate): > 100 µM
TGI (A549 NSCLC): > 100 µM
TGI (HL-60(TB) leukemia): 50.1 µM
TGI (TK-10 renal): > 100 µM
TGI (MOLT-4 leukemia): 62.4 µM
TGI (CCRF-CEM leukemia): 39.3 µM
TGI (OVCAR-8 ovarian): > 100 µM
TGI (SW-620 colon): > 100 µM
TGI (HS 578T breast): > 100 µM
TGI (UACC-257 melanoma): > 100 µM
TGI (OVCAR-5 ovarian): > 100 µM
TGI (BT-549 breast): 52.8 µM
TGI (HT29 colon): > 100 µM
TGI (HCT-116 colon): > 100 µM
TGI (NCI-H460 lung): > 100 µM
TGI (SK-OV-3 ovarian): > 100 µM
TGI (ACHN renal): > 100 µM
TGI (KM12 colon): > 100 µM
TGI (NCI-H226 lung): > 100 µM
TGI (HCC-2998 colon): > 100 µM
TGI (SK-MEL-28 melanoma): > 100 µM
TGI (HOP-62 NSCLC): > 100 µM
TGI (RPMI-8226 leukemia): > 100 µM
TGI (SF-539 CNS): 67.7 µM
TGI (OVCAR-3 ovarian): > 100 µM
TGI (MDA-N): > 100 µM
TGI (LOX IMVI melanoma): 5.38 µM
TGI (MCF7 breast): > 100 µM
TGI (UO-31 renal): > 100 µM
TGI (NCI-H23 lung): > 100 µM
TGI (A498 renal): 99.8 µM
TGI (UACC-62 melanoma): > 100 µM
TGI (COLO 205 colon): > 100 µM
TGI (PC-3 prostate): > 100 µM
TGI (MDA-MB-231 breast): 96.1 µM
TGI (SNB-75 CNS): > 100 µM
TGI (786-0 renal): 50.5 µM
TGI (SF-295 CNS): > 100 µM
TGI (NCI-H522 lung): > 100 µM
TGI (IGROV1 ovarian): 88.3 µM
TGI (M14 melanoma): > 100 µM
TGI (SR leukemia): > 100 µM
TGI (K-562 leukemia): > 100 µM
TGI (SK-MEL-5 melanoma): > 100 µM
TGI (MALME-3M melanoma): > 100 µM
TGI (EKVX NSCLC): > 100 µM
TGI (SN12C renal): > 100 µM
TGI (OVCAR-4 ovarian): > 100 µM
TGI (SNB-19 CNS): > 100 µM
TGI (HOP-92 NSCLC): > 100 µM
TGI (SF-268 CNS): > 100 µM
TGI (T-47D breast): > 100 µM
TGI (MDA-MB-435): > 100 µM
TGI (RXF 393 renal): > 100 µM
